The record followed here is US20260242419A1, “A CYCLIC PEPTIDE FOR TRAPPING INTERLEUKIN-1 BETA” (Merck Sharp & Dohme LLC, priority 2023, published 2026).

Starred links: 1 amine or outer side, 2 acyl side, 3 side chain; linkers in the order of their positions; H or OH if unused. Non-standard residues stand in square brackets, D forms with d. Residues, ends and D or L forms follow the SMILES beside them. X1 = COc1ncc(-c2ccc(C[C@H]3CCN([*:1])[C@H]3C(=O)[*:2])cc2)cn1; X22 = Nc1ncc(-c2ccc(C[C@H]3CCN([*:1])[C@H]3C(=O)[*:2])cc2)cn1; X16 = Cn1cnc(-c2ccc(C[C@H]3CCN([*:1])[C@H]3C(=O)[*:2])cc2)c1; Trp(βS-Me,4-F) = C[C@@H](c1c[nH]c2cccc(F)c12)[C@H](N)C(=O)O; X15 = O=C([C@H]1[C@@H](Cc2ccc(-c3ccnnc3)cc2)CCN1[*:1])[*:2]; Bip(4'-COOH) = N[C@@H](Cc1ccc(-c2ccc(C(=O)O)cc2)cc1)C(=O)O; X18 = Cn1ccnc1-c1ccc(C[C@H]2CCN([*:1])[C@H]2C(=O)[*:2])cc1; X43 = Cc1nocc1-c1ccc(C[C@H]2CCN([*:1])[C@H]2C(=O)[*:2])cc1; X8 = O=C([C@H]1[C@@H](Cc2ccc(-c3ccccn3)cc2)CCN1[*:1])[*:2]; dPro(4R-Bzl(4-F)) = O=C(O)[C@H]1C[C@@H](Cc2ccc(F)cc2)CN1; Ala(pyrimidin-5-yl) = N[C@@H](Cc1cncnc1)C(=O)O; Phe(4-COOH) = N[C@@H](Cc1ccc(C(=O)O)cc1)C(=O)O; Pro(cis-4-F) = O=C(O)[C@@H]1C[C@H](F)CN1; 4Pal = N[C@@H](Cc1ccncc1)C(=O)O; αMeK = C[C@](N)(CCCCN)C(=O)O; Api = NC1(C(=O)O)CCNCC1; Dab = NCC[C@H](N)C(=O)O; Aib = CC(C)(N)C(=O)O

T1 sequence (P01584 117-269): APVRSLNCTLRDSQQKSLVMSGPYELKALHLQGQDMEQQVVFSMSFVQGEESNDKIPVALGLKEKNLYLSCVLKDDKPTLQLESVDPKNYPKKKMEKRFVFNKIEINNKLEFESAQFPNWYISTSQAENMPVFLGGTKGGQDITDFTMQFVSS

The assay has as its target T1, IL-1β (Homo sapiens, UniProt P01584).
T1 construct: purchased BioLegend 579404
The assay is described as follows: IL-6 assay in MRC5 cells: inhibition of IL-1β induced IL-6 secretion (AlphaLISA). It is filed as cell-based. The note with it: inhibition of IL-1β induced IL-6 secretion in MRC5 cells; read-out: MRC5 IC50. The gist of the method:
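Compound was pre-incubated 1 h at ambient temperature with recombinant human IL-1β at 2λ EC80 before adding human lung fibroblast MRC5 cells (3000/well) in EMEM with 0.025% BSA. After overnight culture at 37 °C, 5% CO2, secreted IL-6 in conditioned medium was measured by AlphaLISA; IC50 from 4-parameter logistic fits.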
In general terms: In Alpha technology, singlet oxygen from a donor bead excites a nearby acceptor bead.
As usually defined, the IC50 is the midpoint of a concentration-inhibition curve. As to `C[C@@H](c1c[nH]c2cccc(F)c12)[C@@H]1NC(=O)[C@@H]2C[C@H](F)CN2C(=O)CNC(=O)[C@H](Cc2ccc(C(=O)O)cc2)NC(=O)[C@H](Cc2ccncc2)NC(=O)[C@H](Cc2ccc(-c3ccc(C(=O)O)cc3)cc2)NC(=O)[C@H]2[C@@H](Cc3ccc(-c4ccnnc4)cc3)CCN2C(=O)CNC(=O)[C@H](CCN)NC(=O)[C@H](CCC(N)=O)NC(=O)[C@H](Cc2cncnc2)NC(=O)C(C)(C)NC(=O)[C@H](Cc2c[nH]c3ccccc23)NC(=O)[C@H](CCC(=O)O)NC(=O)C(C)(C)NC1=O` [Example 58] (cyclo([Bip(4'-COOH)][4Pal][Phe(4-COOH)]G[Pro(cis-4-F)][Trp(βS-Me,4-F)][Aib]EW[Aib][Ala(pyrimidin-5-yl)]Q[Dab]G[X15])), the IC50 came to 0.037 nM.

For the compound `C[C@@H](c1c[nH]c2cccc(F)c12)[C@@H]1NC(=O)[C@@H]2C[C@H](F)CN2C(=O)CNC(=O)[C@H](Cc2ccc(C(=O)O)cc2)NC(=O)[C@H](Cc2ccncc2)NC(=O)[C@H](Cc2ccc(-c3ccc(C(=O)O)cc3)cc2)NC(=O)[C@H]2[C@@H](Cc3ccc(-c4cnc(N)nc4)cc3)CCN2C(=O)CNC(=O)[C@H](CCN)NC(=O)[C@H](CCC(N)=O)NC(=O)[C@H](Cc2cncnc2)NC(=O)C(C)(C)NC(=O)[C@H](Cc2c[nH]c3ccccc23)NC(=O)[C@H](CCC(=O)O)NC(=O)C(C)(C)NC1=O` [Example 59] (cyclo([Bip(4'-COOH)][4Pal][Phe(4-COOH)]G[Pro(cis-4-F)][Trp(βS-Me,4-F)][Aib]EW[Aib][Ala(pyrimidin-5-yl)]Q[Dab]G[X22])), the IC50 came out at 0.018 nM. Regarding `COc1ncc(-c2ccc(C[C@H]3CCN4C(=O)CNC(=O)[C@H](CCN)NC(=O)[C@H](CCC(N)=O)NC(=O)[C@H](Cc5cncnc5)NC(=O)C(C)(C)NC(=O)[C@H](Cc5c[nH]c6ccccc56)NC(=O)[C@H](CCC(=O)O)NC(=O)C(C)(C)NC(=O)[C@H]([C@@H](C)c5c[nH]c6cccc(F)c56)NC(=O)[C@@H]5C[C@H](F)CN5C(=O)CNC(=O)[C@H](Cc5ccc(C(=O)O)cc5)NC(=O)[C@H](Cc5ccncc5)NC(=O)[C@H](Cc5ccc(-c6ccc(C(=O)O)cc6)cc5)NC(=O)[C@@H]34)cc2)cn1` [Example 60] (cyclo([Bip(4'-COOH)][4Pal][Phe(4-COOH)]G[Pro(cis-4-F)][Trp(βS-Me,4-F)][Aib]EW[Aib][Ala(pyrimidin-5-yl)]Q[Dab]G[X1])), the IC50 is 0.018 nM. Consider `C[C@@H](c1c[nH]c2cccc(F)c12)[C@@H]1NC(=O)[C@@H]2C[C@H](F)CN2C(=O)CNC(=O)[C@H](Cc2ccc(C(=O)O)cc2)NC(=O)[C@H](Cc2ccncc2)NC(=O)[C@H](Cc2ccc(-c3ccc(C(=O)O)cc3)cc2)NC(=O)[C@H]2[C@@H](Cc3ccc(-c4ccccn4)cc3)CCN2C(=O)CNC(=O)[C@H](CCN)NC(=O)[C@H](CCC(N)=O)NC(=O)[C@H](Cc2cncnc2)NC(=O)C(C)(C)NC(=O)[C@H](Cc2c[nH]c3ccccc23)NC(=O)[C@H](CCC(=O)O)NC(=O)C(C)(C)NC1=O` [Example 61] (cyclo([Bip(4'-COOH)][4Pal][Phe(4-COOH)]G[Pro(cis-4-F)][Trp(βS-Me,4-F)][Aib]EW[Aib][Ala(pyrimidin-5-yl)]Q[Dab]G[X8])), for which the IC50 was 0.022 nM. The result for `Cc1nocc1-c1ccc(C[C@H]2CCN3C(=O)CNC(=O)[C@H](CCN)NC(=O)[C@H](CCC(N)=O)NC(=O)[C@H](Cc4cncnc4)NC(=O)C(C)(C)NC(=O)[C@H](Cc4c[nH]c5ccccc45)NC(=O)[C@H](CCC(=O)O)NC(=O)C(C)(C)NC(=O)[C@H]([C@@H](C)c4c[nH]c5cccc(F)c45)NC(=O)[C@@H]4C[C@H](F)CN4C(=O)CNC(=O)[C@H](Cc4ccc(C(=O)O)cc4)NC(=O)[C@H](Cc4ccncc4)NC(=O)[C@H](Cc4ccc(-c5ccc(C(=O)O)cc5)cc4)NC(=O)[C@@H]23)cc1` [Example 62] (cyclo([Bip(4'-COOH)][4Pal][Phe(4-COOH)]G[Pro(cis-4-F)][Trp(βS-Me,4-F)][Aib]EW[Aib][Ala(pyrimidin-5-yl)]Q[Dab]G[X43])) reads 0.021 nM; that for `C[C@@H](c1c[nH]c2cccc(F)c12)[C@@H]1NC(=O)[C@@H]2C[C@H](F)CN2C(=O)CNC(=O)[C@H](Cc2ccc(C(=O)O)cc2)NC(=O)[C@H](Cc2ccncc2)NC(=O)[C@H](Cc2ccc(-c3ccc(C(=O)O)cc3)cc2)NC(=O)[C@H]2[C@@H](Cc3ccc(-c4nccn4C)cc3)CCN2C(=O)CNC(=O)[C@H](CCN)NC(=O)[C@H](CCC(N)=O)NC(=O)[C@H](Cc2cncnc2)NC(=O)C(C)(C)NC(=O)[C@H](Cc2c[nH]c3ccccc23)NC(=O)[C@H](CCC(=O)O)NC(=O)C(C)(C)NC1=O` [Example 63] (cyclo([Bip(4'-COOH)][4Pal][Phe(4-COOH)]G[Pro(cis-4-F)][Trp(βS-Me,4-F)][Aib]EW[Aib][Ala(pyrimidin-5-yl)]Q[Dab]G[X18])), 0.018 nM. Take `C[C@@H](c1c[nH]c2cccc(F)c12)[C@@H]1NC(=O)[C@@H]2C[C@H](F)CN2C(=O)CNC(=O)[C@H](Cc2ccc(C(=O)O)cc2)NC(=O)[C@H](Cc2ccncc2)NC(=O)[C@H](Cc2ccc(-c3ccc(C(=O)O)cc3)cc2)NC(=O)[C@H]2[C@@H](Cc3ccc(-c4cn(C)cn4)cc3)CCN2C(=O)CNC(=O)[C@H](CCN)NC(=O)[C@H](CCC(N)=O)NC(=O)[C@H](Cc2cncnc2)NC(=O)C(C)(C)NC(=O)[C@H](Cc2c[nH]c3ccccc23)NC(=O)[C@H](CCC(=O)O)NC(=O)C(C)(C)NC1=O` [Example 64] (cyclo([Bip(4'-COOH)][4Pal][Phe(4-COOH)]G[Pro(cis-4-F)][Trp(βS-Me,4-F)][Aib]EW[Aib][Ala(pyrimidin-5-yl)]Q[Dab]G[X16])): the IC50 was found to be 0.014 nM.

Turning to `C[C@@H](c1c[nH]c2cccc(F)c12)[C@@H]1NC(=O)[C@@H]2C[C@H](F)CN2C(=O)CNC(=O)[C@H](Cc2ccc(C(=O)O)cc2)NC(=O)[C@H](Cc2ccncc2)NC(=O)[C@H](Cc2ccc(-c3ccc(C(=O)O)cc3)cc2)NC(=O)[C@H]2C[C@@H](Cc3ccc(F)cc3)CN2C(=O)CNC(=O)[C@H](CCN)NC(=O)[C@H](CCC(N)=O)NC(=O)[C@H](Cc2cncnc2)NC(=O)C2(CCNCC2)NC(=O)[C@H](Cc2c[nH]c3ccccc23)NC(=O)[C@H](CCC(=O)O)NC(=O)C(C)(C)NC1=O` [Example 65] (cyclo([Bip(4'-COOH)][4Pal][Phe(4-COOH)]G[Pro(cis-4-F)][Trp(βS-Me,4-F)][Aib]EW[Api][Ala(pyrimidin-5-yl)]Q[Dab]G[dPro(4R-Bzl(4-F))])), the IC50 was 0.025 nM.

`C[C@@H](c1c[nH]c2cccc(F)c12)[C@@H]1NC(=O)[C@@H]2C[C@H](F)CN2C(=O)CNC(=O)[C@H](Cc2ccc(C(=O)O)cc2)NC(=O)[C@H](Cc2ccncc2)NC(=O)[C@H](Cc2ccc(-c3ccc(C(=O)O)cc3)cc2)NC(=O)[C@H]2C[C@@H](Cc3ccc(F)cc3)CN2C(=O)CNC(=O)[C@H](CCN)NC(=O)[C@H](CCC(N)=O)NC(=O)[C@H](Cc2cncnc2)NC(=O)C(C)(C)NC(=O)[C@H](Cc2c[nH]c3ccccc23)NC(=O)[C@H](CCC(=O)O)NC(=O)[C@](C)(CCCCN)NC1=O` [Example 66] (cyclo([Bip(4'-COOH)][4Pal][Phe(4-COOH)]G[Pro(cis-4-F)][Trp(βS-Me,4-F)][αMeK]EW[Aib][Ala(pyrimidin-5-yl)]Q[Dab]G[dPro(4R-Bzl(4-F))])): the IC50 is 0.028 nM.
